# Values quoted from earlier work as cited in patent publication US12324860B2, “Methods of treating central nervous system disorders via administration of nanoparticles of an mTOR inhibitor and an albumin” (Abraxis BioScience, LLC, priority 2018, dated 2025).
# Read-outs that look alike come from different tables or passages of the source.
# Tests used:
# [1] = in vivo
# [2] = preclinical studies
# [3] = retrospective analysis (Lorgis et al. 2012)
compound,measurement,setting,value
COc1ccc(COc2cc3oc(=O)c4cc(C(C)O)ccc4c3cc2OC)cc1 (stereo not shown) [Palomid 529],brain penetration,[1],good brain penetration
same,affinity for ABCB1/ABCG2,ABCB1/ABCG2,lacks affinity
CO[C@H]1C[C@@H]2CC[C@@H](C)[C@@](O)(O2)C(=O)C(=O)N2CCCC[C@H]2C(=O)O[C@H]([C@H](C)C[C@@H]2CC[C@@H](OCCO)[C@H](OC)C2)CC(=O)[C@H](C)/C=C(\C)[C@@H](O)[C@@H](OC)C(=O)[C@H](C)C[C@H](C)/C=C/C=C/C=C/1C [everolimus],brain penetration,[2],poor brain penetration
bevacizumab: recombinant humanized anti-VEGF antibody,PFS and OS with low dose intensity (<5 mg/kg/week) versus normal dose intensity at 10 mg/kg,[3],improved PFS and OS
